In PMC9166630, “SAR Probing of KX2-391 Provided Analogues With Juxtaposed Activity Profile Against Major Oncogenic Kinases” (Frontiers in Oncology, 2022):

What was measured:
[1] = tested on: Frk; experiment: PamChip tyrosine kinase microarray, Frk; format: biochemical, human; settings: 4e 0.1 µM, HL60 lysate
Description: (§1) The changes in kinase activities induced by treatment with 4e were monitored within the HL60 cell lines using PamGene’s (Hertogenbosch, Netherlands) PamChip® peptide microarray profiler, which quantifies the activities of 144 tyrosine kinases (YK) ([29], [30]) (Figure 7). Results are provided as a log fold change (LFC) heatmap and Mean Kinase Statistic. From the LFC it is apparent that compound 4e, at a concentration of 0.1 µM, induced sizable changes to the activity of several kinases within the cell signaling YK profile (Figure 7A).
(§2) An Upstream Kinase tool was used to generate a putative list of kinases responsible for phosphorylating the phospho-sites on the PamChip (Figure 7B) ([31]). It is an interpretation and is highly dependent on the contents of the underlying phosphorylation databases. A Kinase Score was used for ranking kinases based on their significance and specificity in terms of the set of peptides used for the corresponding kinase. Kinase Statistics indicates the overall change of the peptide set that represents the kinase. Kinase statistics value <0 indicates lower kinase activity in the compound spiked lysate and vice versa ([32], [33]). Table 5 lists the 20 most changed kinases within treated HL60 cell lysates by 0.1 μM 4e, ranked according to their Kinase Score.
(§3) The two multiple-kinase tests (PamChip and Phosphokinase Profiler) provided strong evidence of very minor involvement of Src in the cellular activities of 4e. However, the question must be raised about the effect of the 4e on other SRC family kinase (SFK). To address this point, we must highlight that both R&D phosphokinase profiler and PamChip feature Yes, Fgr, Lyn, Lck and Src while Fyn, Hck, Blk and Frk activities are tested in the PamChip only. The signals of SFKs in the R&D Phosphokinase Profiler were too weak to detect in both untreated (control) and 4e-treated HL60 cells. In PamChip assay, most of SFK’s were not ranked in the top 20 affected kinases (Table 5). In addition, their Specificity Score were very low (Table 6) indicating their marginal importance to the cell killing activities of 4e. Fgr kinase which ranked 7th in the list (Table 5) was the only SFK member that seems to be affected by the compound, albeit with low Specificity Score (1.03).
(§4) The compound 4e was spiked into HL60 cell lysate at different concentrations (0.001, 0.01, 0.1, 1, 10 and 50 μM). In addition, DMSO was also spiked in HL60 lysate at low concentration (2% v/v) as control. Samples were profiled on PamGene’s Tyrosine Kinase (PTK) arrays in technical replicates, covering a total of 196 phosphorylation sites. Frozen HL60 cultured cell pellet was sent to PamGene. […] Protein concentration was measured using standard Bradford assay as per PamGene SOPs. […]

[2] = tested on: Lyn; experiment: PamChip tyrosine kinase microarray, Lyn; format: biochemical, human; settings: 4e 0.1 µM, HL60 lysate
Description: as §1, §2, §3, §4

[3] = tested on: N87 (stomach) cancer cells; experiment: SRB cytotoxicity assay, N87; format: cell-based; settings: Homo sapiens, 72 h, maximum tested concentration 50 µM, read-out: IC50 ± SEM, N87
Description: MCF7 (breast) or N87 (stomach) cancer cells were grown in Roswell Park Memorial Institute-1640 (RPMI-1640) medium (Thermo Fisher Scientific, Inc; Waltham, MA, USA), supplemented with 10% heat inactivated fetal bovine serum (FBS), 50 units/mL of penicillin and […] of streptomycin and maintained at 37°C in a humidified atmosphere containing 5% CO2. The cells were maintained as “monolayer culture” by serial subculturing.
Cytotoxicity was determined using Sulforhodamine B (SRB) method as previously described by Skehan et al. ([66]). Exponentially growing MCF7 and N87 cells were collected using 0.25% Trypsin-EDTA and were then seeded in 96-well plates at a density of 1000-2000 cells/well in 10% FBS and penicillin/streptomycin supplemented RPMI-1640 medium. After 24 h, cells were treated with different concentrations of test compounds and incubated for 72 h at 37°C in a humidified atmosphere containing 5% CO2. Next, the cells were fixed by adding trichloroacetic acid (TCA, 10% final conc. in wells) directly to the wells and incubated for 1 h at 4°C, then cells were washed with distilled water 5 times to remove excess TCA, media, serum proteins, and metabolites, followed by air drying. After that, the fixed cells were stained with 0.4% SRB dissolved in 1% acetic acid for 10 min at room temperature, and excess stain was removed by quickly rinsing with 1% acetic acid. The residual acetic acid was removed completely by air drying the plates for 24 h, and the dye was solubilized with Tris buffer (pH= 7.4, 10 mM) for 5 min on a shaker at 1600 rpm. The optical density (OD) of each well was measured spectrophotometrically at 564 nm with an ELISA microplate reader (ChroMate-4300, FL, USA). The IC50 values (concentration of drug resulting in 50% reduction in cell survival) were calculated according to the equation for Boltzman sigmoidal concentration–response curve using the nonlinear regression fitting models (Graph Pad, Prism Version 5).

[4] = tested on: Src; experiment: PamChip tyrosine kinase microarray, Src; format: biochemical, human; settings: 4e 0.1 µM, HL60 lysate
Description: as §1, §2, §3, §4

[5] = molecular target: T1, Fes (Homo sapiens, UniProt P07332); experiment: PamChip tyrosine kinase microarray, Fes; format: biochemical; settings: 4e 0.1 µM, HL60 lysate
T1 construct: endogenous in cells; host or cells: HL60 lysate
T1 sequence (P07332 whole entry): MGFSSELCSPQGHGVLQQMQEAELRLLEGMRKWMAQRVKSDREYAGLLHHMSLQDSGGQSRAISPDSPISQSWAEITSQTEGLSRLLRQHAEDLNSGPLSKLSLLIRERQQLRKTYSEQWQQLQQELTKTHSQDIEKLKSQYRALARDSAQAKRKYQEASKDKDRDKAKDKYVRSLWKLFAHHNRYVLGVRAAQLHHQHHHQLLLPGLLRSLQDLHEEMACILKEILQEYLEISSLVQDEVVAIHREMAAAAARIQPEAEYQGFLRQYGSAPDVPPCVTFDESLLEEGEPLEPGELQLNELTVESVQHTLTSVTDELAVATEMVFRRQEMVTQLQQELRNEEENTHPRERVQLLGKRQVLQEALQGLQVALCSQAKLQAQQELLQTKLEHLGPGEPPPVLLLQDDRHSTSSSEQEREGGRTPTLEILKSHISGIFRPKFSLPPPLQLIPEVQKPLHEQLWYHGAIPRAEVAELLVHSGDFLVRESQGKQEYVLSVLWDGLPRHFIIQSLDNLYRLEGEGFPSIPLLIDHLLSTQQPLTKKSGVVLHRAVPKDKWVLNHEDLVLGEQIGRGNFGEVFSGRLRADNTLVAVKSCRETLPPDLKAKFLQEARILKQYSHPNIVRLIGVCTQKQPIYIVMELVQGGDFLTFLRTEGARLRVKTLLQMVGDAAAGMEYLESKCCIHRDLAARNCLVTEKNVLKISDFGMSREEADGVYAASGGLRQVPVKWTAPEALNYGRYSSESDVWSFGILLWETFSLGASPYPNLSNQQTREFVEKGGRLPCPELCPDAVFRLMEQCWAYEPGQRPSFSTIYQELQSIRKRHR
Description: as §1, §2
(§5) The compound 4e was spiked into HL60 cell lysate at different concentrations (0.001, 0.01, 0.1, 1, 10 and 50 μM). In addition, DMSO was also spiked in HL60 lysate at low concentration (2% v/v) as control. Samples were profiled on PamGene’s Tyrosine Kinase (PTK) arrays in technical replicates, covering a total of 196 phosphorylation sites. Frozen HL60 cultured cell pellet was sent to PamGene. At PamGene, cells were lysed using a lysis buffer and proteases inhibitors cocktail. Protein concentration was measured using standard Bradford assay as per PamGene SOPs. These lysates were further used for generating the PTK activity profiles. For spiking, 4e was received as powder form and dissolved in DMSO at PamGene facility followed by storing at -20°C in small aliquots. PamGene used its in-house bioinformatics toolbox in combination with other methods to generate hypotheses of signaling pathways.

[6] = tested on: Ron; experiment: PamChip tyrosine kinase microarray, Ron; format: biochemical, human; settings: 4e 0.1 µM, HL60 lysate
Description: as §1, §2, §5

[7] = tested on: TXK; experiment: PamChip tyrosine kinase microarray, TXK; format: biochemical, human; settings: 4e 0.1 µM, HL60 lysate
Description: as §1, §2, §5

[8] = tested on: Fyn; experiment: PamChip tyrosine kinase microarray, Fyn; format: biochemical, human; settings: 4e 0.1 µM, HL60 lysate
Description: as §1, §2, §3, §4

O=C(Cc1ccc(NC(=O)c2cccc(Cl)c2)cc1)NCc1ccccc1 [Compound 4e, N-(4-(2-(benzylamino)-2-oxoethyl)phenyl)-3-chlorobenzamide]
Mean Final Score [1]: 1.6587 | Mean Kinase Statistic [1]: -0.5116 | Mean Significance Score [1]: 1.1484 | Mean Specificity Score [1]: 0.5102 | Mean Final Score [2]: 1.9530 | Mean Kinase Statistic [2]: -0.5775 | Mean Significance Score [2]: 1.2715 | Mean Specificity Score [2]: 0.6815 | IC50 [3]: 5.28 ± 0.91 µM | Mean Final Score [4]: 0.7589 | Mean Kinase Statistic [4]: -0.3527 | Mean Significance Score [4]: 0.7353 | Mean Specificity Score [4]: 0.0236 | Mean Final Score [5]: 2.3241 | Mean Kinase Statistic [5]: -0.6958 | Mean Significance Score [5]: 1.2140 | Mean Specificity Score [5]: 1.1101 | Mean Final Score [6]: 1.8398 | Mean Kinase Statistic [6]: -0.6967 | Mean Significance Score [6]: 1.0254 | Mean Specificity Score [6]: 0.8144 | Mean Final Score [7]: 1.9145 | Mean Kinase Statistic [7]: -0.5527 | Mean Significance Score [7]: 1.2373 | Mean Specificity Score [7]: 0.6772 | Mean Final Score [8]: 1.4765 | Mean Kinase Statistic [8]: -0.4963 | Mean Significance Score [8]: 1.1307 | Mean Specificity Score [8]: 0.3458
